The target in this assay is T1, Sex hormone-binding globulin (Homo sapiens, UniProt P04278).
T1 sequence (P04278 whole entry): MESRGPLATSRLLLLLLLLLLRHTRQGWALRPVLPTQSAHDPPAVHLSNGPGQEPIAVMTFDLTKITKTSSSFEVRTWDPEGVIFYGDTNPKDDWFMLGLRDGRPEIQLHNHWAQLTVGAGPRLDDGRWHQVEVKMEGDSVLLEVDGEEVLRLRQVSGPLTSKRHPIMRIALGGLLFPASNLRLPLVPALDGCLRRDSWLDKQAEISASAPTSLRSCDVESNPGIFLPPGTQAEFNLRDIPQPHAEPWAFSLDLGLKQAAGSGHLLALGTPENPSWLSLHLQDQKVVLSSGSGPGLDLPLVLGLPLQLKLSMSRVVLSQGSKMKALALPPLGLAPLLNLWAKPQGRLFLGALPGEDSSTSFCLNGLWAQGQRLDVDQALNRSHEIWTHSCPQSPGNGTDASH
Description: Displacement of [3H]5alpha dihydrotestosterone from human sex hormone binding globulin.

Structures are written as SMILES.

By Kd is commonly meant the concentration at which binding is half-saturated. Take `C[C@@H]1CC2=CC(=O)CC[C@]2(C)[C@H]2CC[C@@]3(C)[C@@H](CC[C@]3(C)O)[C@H]12` [BOLASTERONE]: the Kd was 0.00174 µM.

As for `C[C@]12C[C@H](O)[C@H]3[C@@H](CCC4=CC(=O)CC[C@@]43C)[C@@H]1CC[C@@H]2C(=O)CO` [CORTICOSTERONE], the Kd is 0.457 µM.

The compound `C[C@]12CCC(=O)C=C1CC[C@@H]1[C@@H]2C(=O)C[C@@]2(C)[C@H]1CC[C@]2(O)C(=O)CO` [CORTISONE] gave a Kd of 0.372 µM.

`C[C@]12CCC(=O)C=C1CC[C@@H]1[C@@H]2CC[C@@]2(C)[C@H]1CC[C@]2(O)C(=O)CO` [CORTODOXONE] gave a Kd of 0.0363 µM.

For the compound `C#C[C@]1(O)CC[C@H]2[C@@H]3CCC4=Cc5oncc5C[C@]4(C)[C@H]3CC[C@@]21C` [DANAZOL], binding was put at a Kd of 0.00631 µM. Compared with the last compound, the Kd is about 5.8-fold lower.

Compound `C#C[C@]1(O)CC[C@H]2[C@@H]3CCC4=CCCC[C@@H]4[C@H]3C(=C)C[C@@]21CC` [DESOGESTREL] had a Kd of 0.251 µM. Against the preceding compound, the Kd is about 40-fold higher.

`C[C@]12CC[C@H]3[C@@H](CCC4=CC(=O)CC[C@@]43C)[C@@H]1CC[C@@H]2C(=O)CO` [DESOXYCORTICOSTERONE] showed a Kd of 0.0417 µM.

Compound `C[C@]12CCc3c(ccc4cc(O)ccc34)[C@@H]1CCC2=O` [EQUILENIN] had an equilibrium dissociation constant (Kd) of 0.0024 µM.

On to `C[C@]12CC[C@H]3C(=CCc4cc(O)ccc43)[C@@H]1CCC2=O` [EQUILIN], for which binding was put at a Kd of 0.00309 µM.

Compound `C[C@]12CC[C@@H]3c4ccc(OC(=O)c5ccccc5)cc4CC[C@H]3[C@@H]1CC[C@@H]2O` [ESTRADIOL BENZOATE] gave a Kd of 1.15 µM.

With `C[C@]12CC[C@@H]3c4ccc(O)cc4CC[C@H]3[C@@H]1C[C@@H](O)[C@@H]2O` [ESTRIOL], the Kd was 0.234 µM.

In turn, `C[C@]12CC[C@@H]3c4ccc(O)cc4CC[C@H]3[C@@H]1CCC2=O` [ESTRONE] showed a Kd of 0.00661 µM.

On to `C#C[C@]1(O)CC[C@H]2[C@@H]3CCc4cc(O)ccc4[C@H]3CC[C@@]21C` [ETHINYL ESTRADIOL], for which the Kd is 0.155 µM.

Compound `C#C[C@]1(O)CC[C@H]2[C@@H]3CCC4=CC(=O)CC[C@]4(C)[C@H]3CC[C@@]21C` [ETHISTERONE] had a Kd of 0.00166 µM.

`C[C@]12CC[C@@H](O)C[C@H]1CC[C@@H]1[C@@H]2CC[C@]2(C)C(=O)CC[C@@H]12` [ETIOCHOLANOLONE]: binding was characterised by a dissociation constant (Kd) of 0.708 µM.

Consider `C#C[C@]1(O)CC[C@H]2[C@@H]3CCC4=CC(=O)CC[C@@H]4[C@H]3C(=C)C[C@@]21CC` [ETONOGESTREL], for which the Kd was 0.00589 µM.

In the case of `O=c1c(-c2ccc(O)cc2)coc2cc(O)cc(O)c12` [GENISTEIN], the Kd is 39.8 µM.

In turn, `C#C[C@]1(O)CC[C@H]2[C@@H]3CCC4=CC(=O)CCC4=C3C=C[C@@]21CC` [GESTRINONE] had a Kd of 0.00776 µM.

Take `C[C@]12CCC(=O)C=C1CC[C@@H]1[C@@H]2[C@@H](O)C[C@@]2(C)[C@H]1CC[C@]2(O)C(=O)CO` [HYDROCORTISONE]: the Kd was 0.631 µM.

As for `CC(=O)[C@@]1(O)CC[C@H]2[C@@H]3CCC4=CC(=O)CC[C@]4(C)[C@H]3CC[C@@]21C` [HYDROXYPROGESTERONE], the Kd is 0.1 µM.

`COc1cc(C[C@H]2COC(=O)[C@@H]2Cc2ccc(O)c(OC)c2)ccc1O` [MATAIRESINOL]: the Kd was 0.309 µM.

`CC(=O)O[C@]1(C(C)=O)CC[C@H]2[C@@H]3C[C@H](C)C4=CC(=O)CC[C@]4(C)[C@H]3CC[C@@]21C` [MEDROXYPROGESTERONE ACETATE] gave a Kd of 0.631 µM.

Consider `C[C@]12CCC(=O)C[C@@H]1CC[C@@H]1[C@@H]2CC[C@@]2(C)[C@H]1CC[C@]2(C)O` [MESTANOLONE], for which the Kd is 0.00155 µM. Compared with the last compound, the Kd is about 410-fold lower.

Take `C[C@H]1CC(=O)C[C@@H]2CC[C@H]3[C@@H]4CC[C@H](O)[C@@]4(C)CC[C@@H]3[C@]21C` [MESTEROLONE]: the Kd is 0.000251 µM.

With `C[C@]12CCC(=O)C=C1CC[C@@H]1[C@@H]2CC[C@@]2(C)[C@H]1CC[C@]2(C)O` [METHYLTESTOSTERONE], the Kd is 0.00372 µM.

Take `C[C@]12CC[C@H]3[C@@H](CCC4=CC(=O)CC[C@@H]43)[C@@H]1CC[C@@H]2O` [NANDROLONE]: the Kd was 0.501 µM.

`C#C[C@]1(O)CC[C@H]2[C@@H]3CCC4=CC(=O)CC[C@@H]4[C@H]3CC[C@@]21C` [NORETHINDRONE] gave a Kd of 0.0107 µM.

Turning to `C[C@]12CC[C@H](O)CC1=CC[C@@H]1[C@@H]2CC[C@]2(C)C(=O)CC[C@@H]12` [PRASTERONE], the Kd was 0.0145 µM.

For the compound `CC(=O)[C@H]1CC[C@H]2[C@@H]3CC=C4C[C@@H](O)CC[C@]4(C)[C@H]3CC[C@]12C` [PREGNENOLONE], the Kd is 0.0708 µM.

For the compound `CC(=O)[C@H]1CC[C@H]2[C@@H]3CCC4=CC(=O)CC[C@]4(C)[C@H]3CC[C@]12C` [PROGESTERONE], the Kd is 0.115 µM.

`C[C@]12CCC(=O)C[C@@H]1CC[C@@H]1[C@@H]2CC[C@]2(C)[C@@H](O)CC[C@@H]12` [STANOLONE] showed an equilibrium dissociation constant (Kd) of 0.000182 µM.

`C[C@]12CC[C@H]3[C@@H](CCC4=CC(=O)CC[C@@]43C)[C@@H]1CC[C@@H]2O` [TESTOSTERONE]: the Kd is 0.000631 µM.

The values are drawn from ChEMBL document CHEMBL1142400, “An updated steroid benchmark set and its application in the discovery of novel nanomolar ligands of sex hormone-binding globulin” (J Med Chem, 2008).
